Measured values published in patent US12133900B2, “Synthesis and composition of amino acid linking groups conjugated to compounds used for the targeted imaging of tumors” (Purdue Research Foundation, priority 2013, dated 2024).
Entries after “also recorded” stand apart in the source; their conditions may differ.

Experiments:
[1] = test system: FR-positive IGROV orthotopic ovary tumor; assay: Imaging and biodistribution, IGROV ovarian orthotopic model; assay type: in vivo, mice; conditions: 2 nmol, 2 h
Protocol: Ovarian cancer was developed through surgical implantation of ovarian cancer cell lines near the ovarian bursa of the mouse. Seven-week-old female athymic nude mice were given 1-5% isoflurane for anesthesia and subcutaneous injection of 5 mg/kg meloxicam preoperatively for analgesia. The mice were placed dorsal side up and washed above the right ovary (just lateral to the epaxial muscles and ˜1.15 cm caudal to the rib cage) with a chlorhexidine scrub to ensure a sterile area for incision. After an insertion was made using scalpel through the skin, the peritoneal lining was lifted to make a small incision using a scissor and widened using a forceps. The ovarian fat pad was carefully lifted out and placed on a wetted gauze pad adjacent to the incision. Ovarian cancer cells (50,000 cells in 5 μL) were injected between the bursa and the ovary using a 30 gage needle. After placing the ovarian fat pad back into the body cavity, the body wall was closed using 3-0 or 4-0 vicryl and the skin was closed using staples.
Following whole body imaging, animals were dissected and selected tissues (heart, lung, liver, spleen, kidneys, stomach, small intestine, large intestine, muscle, skin, and tumor) were analyzed for fluorescence activity using IVIS imager using same settings as in whole body imaging.

[2] = test system: folate receptor positive KB tumor xenografts; assay: Whole body imaging and tissue biodistribution, KB tumor xenografts; assay type: in vivo, mice; conditions: for tumor uptake: 0.3 nmol dose i.v.; for non-specific uptake: 60 and 90 nmol doses i.v.
Protocol: (§1) Seven-week-old female nu/nu mice were inoculated subcutaneously with KB cells (1.0×10^6/mouse in folate free RPM11640 medium) on the shoulder. […] […] Whole body imaging (intact tumor) experiments were then performed using a Caliper IVIS Lumina II Imaging Station with Living Image 4.0 software (PerkinElmer Inc, MA). Settings for imaging:—lamp level: medium; excitation: 745 nm; emission: 830 nm; epi illumination; binning: 4 (M), FOV=12.5; f-stop=2; acquisition time=1 s.
Following whole body imaging, animals were dissected and selected tissues (heart, lung, liver, spleen, kidneys, stomach, small intestine, large intestine, muscle, skin, tumor) were analyzed for fluorescence activity using IVIS imager as before. Settings for imaging: lamp level: medium; excitation: 745 nm; emission: 830 nm; epi illumination; binning: 4 (M), FOV=12.5; f-stop=2; acquisition time=1 s.
as §1, with “shoulder. Growth of the tumors was measured in perpendicular directions every 2 days using a caliper (body weights were monitored on the same schedule), and the volumes of the tumors were calculated as 0.5×L×W^2 (L=longest axis and W=axis perpendicular to L in millimeters).” for “shoulder.”, “ICG (830 nm);” for “830 nm;”
Following whole body imaging, animals were dissected and selected tissues (heart, lung, liver, spleen, kidneys, stomach, small intestine, large intestine, muscle, skin, and tumor) were analyzed for fluorescence activity using IVIS imager as before. Settings for imaging:—lamp level: medium; excitation: 745 nm; emission:ICG (830 nm); epi illumination; binning: 4 (M), FOV=12.5; f-stop=2; acquisition time=1 s.
Five-week-old female nu/nu mice were inoculated subcutaneously with KB cells (1.0×10^6/mouse in RPMI medium) on their shoulders. Growth of the tumors was measured in two perpendicular directions every 2 days using a caliper (body weights were monitored on the same schedule), and the volumes of the tumors were calculated as 0.5×L×W^2 (L) longest axis and W) axis perpendicular to L in millimeters). Once tumors reached between 400 and 500 mm3 in volume, animals were treated with folate receptor-targeted NIR dye conjugate (10 nmol) in phosphate buffered saline (100 μL). […]
Animal imaging experiments were performed using a Caliper Ivis Lumina II Imaging Station with Living Image 4.0 software. Settings for imaging Alexa Fluor 647 and DyLight 680 conjugates: lamp level: high; excitation: 605; emission: Cy5.5; epi illumination; binning: (M) 4; FOV=7.5; f-stop=4; acquisition time=1 s. Settings for imaging DyLight 750 and IR800CW conjugates: lamp level: high; excitation: 745; emission: ICG; epi illumination; binning: (M) 4, FOV=12.5; f-stop=4; acquisition time=1 s.
Seven-week-old female nu/nu mice were inoculated subcutaneously with KB cells (1.0×10^6/mouse in folate free RPM11640 medium) on the shoulder. Growth of the tumors was measured in perpendicular directions every 2 days using a caliper (body weights were monitored on the same schedule), and the volumes of the tumors were calculated as 0.5×L×W^2 (L=longest axis and W=axis perpendicular to L in millimeters). Once tumors reached between 400 and 500 mm3 in volume, animals (5 mice/group) were intravenously injected with 10 nmol of OTL-0038 or OTL-0039 in phosphate buffered saline (100 μL). After 2.5 hours, animals were euthanized by CO2 asphyxiation. Whole body imaging (intact tumor) experiments were then performed using a Caliper IVIS Lumina II Imaging Station with Living Image 4.0 software (PerkinElmer Inc, MA). […]

[3] = 10 nmol i.v., 2 h, listed as OTL38
[4] = 10 nmol i.v., 2 h, listed as Pte-Tyr-S0456
[5] = 10 nmol tail vein, live imaging
[6] = dose escalation 0.3-90 nmol i.v.

SMILES: CC1(C)C(/C=C/C2=C(Oc3ccc(C[C@H](NC(=O)c4ccc(NCc5cnc6nc(N)[nH]c(=O)c6n5)cc4)C(=O)[O-])cc3)C(=C/C=C3\N(CCCCS(=O)(=O)[O-])c4ccc(S(=O)(=O)[O-])cc4C3(C)C)/CCC2)=[N+](CCCCS(=O)(=O)[O-])c2ccc(S(=O)(=O)[O-])cc21.[H+].[H+].[H+].[H+] [OTL-0038, Pte-Tyr-S0456]
- accumulation (tissue biodistribution) [1]: accumulated mainly in the FR-positive IGROV orthotopic ovary tumor
- tumor-to-normal tissue ratios [1]: excellent tumor-to-normal tissue ratios
- tumor uptake [2]: lower uptake in folate receptor-positive tumors (weak fluorescence intensity)
- tumor uptake ([2]; listed as OTL38): lower uptake in FR-positive tumors (weak fluorescence intensity)
- whole body imaging, tissue biodistribution and tumor-to-tissue ([2]; 2 nmol dose, 2 h post injection): excellent
- time in which nonspecific skin tissue uptake clears ([2]; 10 nmol): ≤ 24 h
- tumor fluorescence intensity, direct comparison ([2]; 10 nmol i.v., 2 h): brighter than the mice treated with the other conjugates
- tumor-to-tissue ratios ([2]; 10 nmol i.v., 2 h): excellent tumor-to-tissue ratios except the skin
- whole body imaging: accumulation ([2]; 10 nmol i.v., 2 h): accumulated predominantly in the folate receptor-positive tumors
- ex vivo tissue biodistribution [2, 3]: highest fluorescence intensity was observed in FR-positive tumors with no accumulation in the other tissues except the kidneys and skin
- whole body imaging: accumulation [2, 3]: accumulated predominantly in the FR positive KB tumors
- ex vivo tissue biodistribution [2, 4]: accumulated predominantly in the folate receptor positive tumors with no substantial fluorescence activity in other organs except the kidneys
- tumor fluorescence intensity, direct comparison [2, 4]: competitive, in terms of fluorescent brightness, to all folate-NIR conjugates
- whole body imaging: accumulation [2, 4]: mainly accumulated in the folate receptor positive tumors and no fluorescence was observed in other tissues
- ex vivo tissue biodistribution ([2]; 10 nmol i.v., 2.5 h): highest fluorescence intensity was observed in FR-positive tumors with no accumulation in the other tissues except the kidneys; also recorded: mainly accumulated in folate receptor positive tumor xenografts and kidneys
- tumor fluorescence intensity, direct comparison ([2]; 10 nmol i.v., 2.5 h): brighter (higher); also recorded: beneficial aspects relative to folate-LS288, folate-IR800, and folate-ZW800 in tumor accumulated fluorescence intensity
- tumor-to-normal tissue fluorescence ratios ([2]; 10 nmol i.v., 2.5 h): excellent tumor-to-normal tissue fluorescence ratios
- whole body imaging: accumulation ([2]; 10 nmol i.v., 2.5 h): accumulated predominantly in the folate receptor positive tumors
- time point at which clearing from the skin starts [2, 5]: 2 h
- time to saturate FR [2, 5]: 2 to 4 h
- time to accumulate in FR positive tumor and kidneys ([2]; 10 nmol tail vein, live imaging 15 min to 48 h): ≤ 1 h
- skin fluorescence ([2]; 10 nmol, 24-48 hour time points): minimal fluorescence
- uptake in sliced (dissected) tumors ([2]; 10 nmol, 2 h): accumulated homogeneously in all tumor cells
- fluorescence intensity in the skin ([2]; 10 nmol, 24 h post injection, ImageJ): minimal
- fluorescence in tumor ([2]; 10 nmol, 48 hour time point): remains high
- non-specific uptake [2]: higher non-specific uptake
- non-specific uptake ([2]; listed as OTL38): higher non-specific uptake in healthy tissues
- highest dose to obtain best tumor-to-background ratio [2, 6]: 30 nmol
- lowest dose to obtain good tumor-to-background ratio [2, 6]: 1.0 nmol
- kidney uptake ([2]; dose range 0.3-10 nmol): higher kidney uptake
- tumor uptake and tumor-to-normal tissue ratio ([2]; dose range 1.0-30.0 nmol i.v.): tumor uptake and excellent tumor-to-normal tissue ratio
- kidney uptake ([2]; dose range 30-90 nmol): less kidney uptake (relative to tumor uptake)
